Experimental data: patent US5980913A, “Peptides having immunomodulatory activity” (Biochem Pharma, Inc., priority 1994, dated 1999)
Where a SMILES comes first, the peptide text is derived from it. [ ]: non-standard residue; d: D form.

Experiments:
[1] = Stability in Rat Whole Blood at 37° C., HPLC; assay type: in vitro ADME; parameters: half-life: dose or concentration left out as unconfirmed; conditions: for HPLC AREA: rat whole blood 37° C.
Protocol: Eluent: A=CH3 CN B=Ammonium Acetate 0.01 M pH 6
Stock solution of the peptide is prepared at a concentration of 1.lmg/ml and dissolved in 10% CH3 CN/H2 O.
Rat Whole Blood (EDTA) is spiked with the peptide to give a concentration of […].
Same concentration of 10% CH3 CN/H2 O is also spiked to Rat Whole Blood (EDTA) as a control blank.
Aliquotes of […] are taken (in duplicate) of both spiked and control blanks at the following times:
FOR BLANK BLOOD: 0', 90'.
Each aliquoted samples are centrifuged at 4° C., 4400 rpm for 10 minutes.
3. Extraction Procedure: Liquid--Liquid Extraction
For each plasma sample, 100 μl of plasma are transferred to an eppendorf vial and 200 μl of acetonitrile added to it. The mixture is vortexed for 30 seconds and centrifuged at 4° C., 5 minutes 14000 rpm (Centra MP4R centrifuge, rotor # IEC 851). 200 μl of supernatant are transferred to another vial and evaporated to dryness with the Speed vac Plus (Savant SC-110A). The dried sample is reconstituted with […] of Mobile phase and an aliquote of this is injected to HPLC(high pressure liquid chromatography) for analysis.

[2] = tested on: spleen cell subsets (cell surface antigens); assay: In vivo/ex vivo immunophenotyping in the spleen, mice treated 4 consecutive days; parameters: species or system C57BL/6 mice
Protocol: C57BL.backslash.6 mice are treated with 0, 50, 100, 200, and 300 mg/kg of drug (in saline) for 4 consecutive days. Blood is taken by cardiac puncture on day 5, and the lymphocytes are isolated from spleen in the following manner:
The spleen is aseptically removed and mashed by pressing against a steel strainer with a rubber plunger. The cell suspension is separated from the clumps by letting them settle at the bottom of the tube. The cell suspension is then separated on a Lymphocyte M layer and the interface is recovered and resuspended in media.
1. Immunophenotyping (blood and spleen)
Cell immunophenotyping is performed on blood and spleen. The following cell surface antigens are analyzed:
CD4 (T helper/inducer, binds class II-restricted T cells);
CD8 (cytotoxic T cells, CTL adhesion);
MAC-1 (monocyte/macrophage);
NK (natural killer cells);
CD45 (all leukocytes, protein tyrosine phosphatase).

## NCCCC[C@@H](N)C(=O)N[C@@H](CC(N)=O)C(=O)N1CCC[C@H]1C(=O)N[C@@H](Cc1ccc(O)cc1)C(=O)O [PEPTIDE #5, H-(D-Lys)-Asn-Pro-Tyr-OH] (H-[dK]NPY-OH)
[1]; 0 min
  HPLC AREA: 2471958
[1]; 5 min
  HPLC AREA: 2362251.2
[1]; 10 min
  HPLC AREA: 2386700
[1]; 15 min
  HPLC AREA: 2965610
[1]; 30 min
  HPLC AREA: 2038700.5
[1]; 45 min
  HPLC AREA: 2186985.5
[1]; 60 min
  HPLC AREA: 2194185.5
[1]; 75 min
  HPLC AREA: 2559208.5
[1]; 90 min
  HPLC AREA: 2263081.5
[1]; rat, rat whole blood (EDTA), 37° C.
  half-life: > 90 min
[2]; 50 mg/kg, first assay
  CD4+ CD8+ cell subset, relative percentage, MEAN: 0.58
  CD4+ CD8- cell subset, relative percentage, MEAN: 33.05
  CD4+ CD11b+ cell subset, relative percentage, MEAN: 0.83
  CD4+ CD11b- cell subset, relative percentage, MEAN: 23.88
  CD4- CD8+ cell subset, relative percentage, MEAN: 5.73
  CD4- CD8- cell subset, relative percentage, MEAN: 60.65
  CD4- CD11b+ cell subset, relative percentage, MEAN: 3.63
  CD4- CD11b- cell subset, relative percentage, MEAN: 71.73
  CD45+ CD4+ cell subset, relative percentage, MEAN: 21.43
  CD45+ CD4- cell subset, relative percentage, MEAN: 55.25
  CD45+ CD8+ cell subset, relative percentage, MEAN: 5.38
  CD45+ CD8- cell subset, relative percentage, MEAN: 66.00
  CD45- CD4+ cell subset, relative percentage, MEAN: 13.28
  CD45- CD4- cell subset, relative percentage, MEAN: 10.03
  CD45- CD8+ cell subset, relative percentage, MEAN: 0.63
  CD45- CD8- cell subset, relative percentage, MEAN: 28.05
  Ly5(B) cell subset, relative percentage, MEAN: 57.85
  NK+ CD3+ cell subset, relative percentage, MEAN: 1.50
  NK+ CD3- cell subset, relative percentage, MEAN: 3.78
  NK- CD3+ cell subset, relative percentage, MEAN: 38.13
  NK- CD3- cell subset, relative percentage, MEAN: 56.68
  TCR(T) cell subset, relative percentage, MEAN: 40.23
[2]; 50 mg/kg, second assay
  CD4+ CD8+ cell subset, relative percentage, MEAN: 0.63
  CD4+ CD8- cell subset, relative percentage, MEAN: 36.53
  CD4+ CD11b+ cell subset, relative percentage, MEAN: 0.38
  CD4+ CD11b- cell subset, relative percentage, MEAN: 14.85
  CD4- CD8+ cell subset, relative percentage, MEAN: 5.85
  CD4- CD8- cell subset, relative percentage, MEAN: 57.03
  CD4- CD11b+ cell subset, relative percentage, MEAN: 3.60
  CD4- CD11b- cell subset, relative percentage, MEAN: 81.15
  CD45+ CD4+ cell subset, relative percentage, MEAN: 29.23
  CD45+ CD4- cell subset, relative percentage, MEAN: 49.85
  CD45+ CD8+ cell subset, relative percentage, MEAN: 6.03
  CD45+ CD8- cell subset, relative percentage, MEAN: 75.15
  CD45- CD4+ cell subset, relative percentage, MEAN: 8.83
  CD45- CD4- cell subset, relative percentage, MEAN: 12.05
  CD45- CD8+ cell subset, relative percentage, MEAN: 0.18
  CD45- CD8- cell subset, relative percentage, MEAN: 18.65
  Ly5(B) cell subset, relative percentage, MEAN: 41.20
  NK+ CD3+ cell subset, relative percentage, MEAN: 2.18
  NK+ CD3- cell subset, relative percentage, MEAN: 3.83
  NK- CD3+ cell subset, relative percentage, MEAN: 39.60
  NK- CD3- cell subset, relative percentage, MEAN: 54.38
  TCR(T) cell subset, relative percentage, MEAN: 51.58
[2]; 100 mg/kg, first assay
  CD4+ CD8+ cell subset, relative percentage, MEAN: 0.70
  CD4+ CD8- cell subset, relative percentage, MEAN: 36.85
  CD4+ CD11b+ cell subset, relative percentage, MEAN: 0.95
  CD4+ CD11b- cell subset, relative percentage, MEAN: 23.73
  CD4- CD8+ cell subset, relative percentage, MEAN: 7.03
  CD4- CD8- cell subset, relative percentage, MEAN: 55.50
  CD4- CD11b+ cell subset, relative percentage, MEAN: 4.10
  CD4- CD11b- cell subset, relative percentage, MEAN: 71.23
  CD45+ CD4+ cell subset, relative percentage, MEAN: 23.25
  CD45+ CD4- cell subset, relative percentage, MEAN: 52.10
  CD45+ CD8+ cell subset, relative percentage, MEAN: 6.43
  CD45+ CD8- cell subset, relative percentage, MEAN: 63.43
  CD45- CD4+ cell subset, relative percentage, MEAN: 15.35
  CD45- CD4- cell subset, relative percentage, MEAN: 9.30
  CD45- CD8+ cell subset, relative percentage, MEAN: 0.83
  CD45- CD8- cell subset, relative percentage, MEAN: 29.30
  Ly5(B) cell subset, relative percentage, MEAN: 56.75
  NK+ CD3+ cell subset, relative percentage, MEAN: 1.83
  NK+ CD3- cell subset, relative percentage, MEAN: 3.88
  NK- CD3+ cell subset, relative percentage, MEAN: 38.38
  NK- CD3- cell subset, relative percentage, MEAN: 55.95
  TCR(T) cell subset, relative percentage, MEAN: 39.83
[2]; 100 mg/kg, second assay
  CD4+ CD8+ cell subset, relative percentage, MEAN: 0.53
  CD4+ CD8- cell subset, relative percentage, MEAN: 31.78
  CD4+ CD11b+ cell subset, relative percentage, MEAN: 0.33
  CD4+ CD11b- cell subset, relative percentage, MEAN: 14.65
  CD4- CD8+ cell subset, relative percentage, MEAN: 4.68
  CD4- CD8- cell subset, relative percentage, MEAN: 63.03
  CD4- CD11b+ cell subset, relative percentage, MEAN: 3.53
  CD4- CD11b- cell subset, relative percentage, MEAN: 81.53
  CD45+ CD4+ cell subset, relative percentage, MEAN: 26.40
  CD45+ CD4- cell subset, relative percentage, MEAN: 50.20
  CD45+ CD8+ cell subset, relative percentage, MEAN: 4.80
  CD45+ CD8- cell subset, relative percentage, MEAN: 73.48
  CD45- CD4+ cell subset, relative percentage, MEAN: 6.83
  CD45- CD4- cell subset, relative percentage, MEAN: 16.60
  CD45- CD8+ cell subset, relative percentage, MEAN: 0.10
  CD45- CD8- cell subset, relative percentage, MEAN: 21.68
  Ly5(B) cell subset, relative percentage, MEAN: 48.28
  NK+ CD3+ cell subset, relative percentage, MEAN: 2.25
  NK+ CD3- cell subset, relative percentage, MEAN: 4.10
  NK- CD3+ cell subset, relative percentage, MEAN: 28.65
  NK- CD3- cell subset, relative percentage, MEAN: 65.05
  TCR(T) cell subset, relative percentage, MEAN: 40.33
[2]; 200 mg/kg, first assay
  CD4+ CD8+ cell subset, relative percentage, MEAN: 0.63
  CD4+ CD8- cell subset, relative percentage, MEAN: 33.73
  CD4+ CD11b+ cell subset, relative percentage, MEAN: 1.00
  CD4+ CD11b- cell subset, relative percentage, MEAN: 22.65
  CD4- CD8+ cell subset, relative percentage, MEAN: 5.68
  CD4- CD8- cell subset, relative percentage, MEAN: 60.00
  CD4- CD11b+ cell subset, relative percentage, MEAN: 3.58
  CD4- CD11b- cell subset, relative percentage, MEAN: 72.00
  CD45+ CD4+ cell subset, relative percentage, MEAN: 21.18
  CD45+ CD4- cell subset, relative percentage, MEAN: 54.03
  CD45+ CD8+ cell subset, relative percentage, MEAN: 5.28
  CD45+ CD8- cell subset, relative percentage, MEAN: 64.83
  CD45- CD4+ cell subset, relative percentage, MEAN: 14.33
  CD45- CD4- cell subset, relative percentage, MEAN: 10.48
  CD45- CD8+ cell subset, relative percentage, MEAN: 0.55
  CD45- CD8- cell subset, relative percentage, MEAN: 29.35
  Ly5(B) cell subset, relative percentage, MEAN: 59.50
  NK+ CD3+ cell subset, relative percentage, MEAN: 1.95
  NK+ CD3- cell subset, relative percentage, MEAN: 3.88
  NK- CD3+ cell subset, relative percentage, MEAN: 35.70
  NK- CD3- cell subset, relative percentage, MEAN: 58.50
  TCR(T) cell subset, relative percentage, MEAN: 37.30
[2]; 200 mg/kg, second assay
  CD4+ CD8+ cell subset, relative percentage, MEAN: 0.55
  CD4+ CD8- cell subset, relative percentage, MEAN: 36.13
  CD4+ CD11b+ cell subset, relative percentage, MEAN: 0.33
  CD4+ CD11b- cell subset, relative percentage, MEAN: 13.10
  CD4- CD8+ cell subset, relative percentage, MEAN: 4.95
  CD4- CD8- cell subset, relative percentage, MEAN: 58.40
  CD4- CD11b+ cell subset, relative percentage, MEAN: 3.20
  CD4- CD11b- cell subset, relative percentage, MEAN: 78.38
  CD45+ CD4+ cell subset, relative percentage, MEAN: 29.00
  CD45+ CD4- cell subset, relative percentage, MEAN: 52.45
  CD45+ CD8+ cell subset, relative percentage, MEAN: 5.08
  CD45+ CD8- cell subset, relative percentage, MEAN: 78.23
  CD45- CD4+ cell subset, relative percentage, MEAN: 8.63
  CD45- CD4- cell subset, relative percentage, MEAN: 9.98
  CD45- CD8+ cell subset, relative percentage, MEAN: 0.13
  CD45- CD8- cell subset, relative percentage, MEAN: 16.60
  Ly5(B) cell subset, relative percentage, MEAN: 46.50
  NK+ CD3+ cell subset, relative percentage, MEAN: 2.35
  NK+ CD3- cell subset, relative percentage, MEAN: 4.35
  NK- CD3+ cell subset, relative percentage, MEAN: 32.15
  NK- CD3- cell subset, relative percentage, MEAN: 61.10
  TCR(T) cell subset, relative percentage, MEAN: 47.23
